Data set [1] in a line: Stability of R-. It is filed as in vitro ADME, human. The following applies: for Remained concentration: human plasma with 20 mM glutathione, added concentration 3.585 μg/mL, n=3, Mean±S.D.
The conditions of data set [2]: cited from earlier work.

Here are results for three compounds from publication PMC3358459 (Journal of Pharmaceutical and Biomedical Analysis, 2012).

As to `Cc1cc2c(C(C)C)c(O)c(O)c(C=O)c2c(O)c1-c1c(C)cc2c(C(C)C)c(O)c(O)c(C=O)c2c1O` [R-(-)-gossypol], the “Effect of antioxidants on stability in plasma” value in data set [1] (5 μg/mL in plasma with 20 mM reduced glutathione and 1% ascorbic acid, 4°C) is on record as “can improve the stability”. The Remained concentration is reported as 111.8±5.6% in data set [1] (-80°C, 1 month); 103.8±6.1% in data set [1] (on ice, 4hr); 86.9±1.1% in data set [1] (three freeze-thaw cycles). Also, in data set [1] (plasma, room temperature, over 24hr, compared to freshly prepared samples), the Degraded in plasma entry was “more than 60%”. Further, the “Stability in mobile phase” value (acetonitrile/water (80:20), 24hr at 4°C) is on record as “good stability”.
With `Cc1cc2c(C(C)C)c(O)c(O)c(C=O)c2c(O)c1-c1c(C)cc2c(C(C)C)c(O)c(O)c(C=O)c2c1O` [gossypol], the “Stability of quality control plasma samples” value is recorded as “stable” in data set [1] (plasma with 20 mM glutathione, -70°C for 1 month) and “stable” in data set [1] (plasma with 20 mM glutathione, on ice for 4 hr). In addition, the Freeze-thaw stability entry in data set [1] (plasma with 20 mM glutathione, after 3 cycles, lower concentration) was “significant degradation”. Moreover, the Stability in acetonitrile result in data set [2] (acetonitrile) is “stable”. Moreover, the Stability in methanol result in data set [2] (methanol, even at 5°C) is recorded as “decompose”. Moreover, the Stability in solvents result in data set [2] (water, methanol, ethanol and alcoholic solvents) was “unstable”.
For R-(-)-gossypol acetic acid, the “Time stock solution was stable” value (1mg/mL in acetonitrile, -70°C) came out at 3 months.
